Assays:
Test in all cases: Kinase profiling
Format in all cases: biochemical
Aurora-C(h) = target: T1, Aurora-C(h) (Homo sapiens, UniProt Q9UQB9)
T1 construct: purchased Eurofins Cerep SA (KinaseProfiler)
Experimental: (§1) 380 kinases inhibitory activities of SKLB-D18 were conducted by Eurofins Cerep SA. The result was illustrated by kinase tree (http://www.kinhub.org/kinmap/).

CDK2/cyclinA(h) = target: T2, CDK2/cyclinA(h) (Homo sapiens, UniProt P24941)
T2 construct: purchased Eurofins Cerep SA (KinaseProfiler)
Experimental: as §1

CDK6/cyclinD3(h) = target: T3, CDK6/cyclinD3(h) (Homo sapiens, UniProt Q00534)
T3 construct: purchased Eurofins Cerep SA (KinaseProfiler)
Experimental: as §1

CDKL1(h) = target: T4, CDKL1(h) (Homo sapiens, UniProt Q00532)
T4 construct: purchased Eurofins Cerep SA (KinaseProfiler)
Experimental: as §1

CK1γ2(h) = target: T5, CK1γ2(h) (Homo sapiens, UniProt P78368)
T5 construct: purchased Eurofins Cerep SA (KinaseProfiler)
Experimental: as §1

CK2α2(h) = target: T6, CK2α2(h) (Homo sapiens, UniProt P19784)
T6 construct: purchased Eurofins Cerep SA (KinaseProfiler)
T6 sequence (P19784 whole entry): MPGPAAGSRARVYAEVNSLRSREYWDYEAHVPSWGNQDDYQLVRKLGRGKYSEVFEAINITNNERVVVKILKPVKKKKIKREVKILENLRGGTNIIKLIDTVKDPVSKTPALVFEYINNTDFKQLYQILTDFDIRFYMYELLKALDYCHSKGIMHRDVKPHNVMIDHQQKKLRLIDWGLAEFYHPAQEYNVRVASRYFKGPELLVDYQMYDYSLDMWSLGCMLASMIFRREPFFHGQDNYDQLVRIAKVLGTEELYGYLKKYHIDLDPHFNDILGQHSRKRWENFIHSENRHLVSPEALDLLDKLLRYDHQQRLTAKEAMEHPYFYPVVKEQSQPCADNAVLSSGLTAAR
Experimental: as §1

CaMKIIδ(h) = target: T7, CaMKIIδ(h) (Homo sapiens, UniProt Q13557)
T7 construct: purchased Eurofins Cerep SA (KinaseProfiler)
T7 sequence (Q13557 whole entry): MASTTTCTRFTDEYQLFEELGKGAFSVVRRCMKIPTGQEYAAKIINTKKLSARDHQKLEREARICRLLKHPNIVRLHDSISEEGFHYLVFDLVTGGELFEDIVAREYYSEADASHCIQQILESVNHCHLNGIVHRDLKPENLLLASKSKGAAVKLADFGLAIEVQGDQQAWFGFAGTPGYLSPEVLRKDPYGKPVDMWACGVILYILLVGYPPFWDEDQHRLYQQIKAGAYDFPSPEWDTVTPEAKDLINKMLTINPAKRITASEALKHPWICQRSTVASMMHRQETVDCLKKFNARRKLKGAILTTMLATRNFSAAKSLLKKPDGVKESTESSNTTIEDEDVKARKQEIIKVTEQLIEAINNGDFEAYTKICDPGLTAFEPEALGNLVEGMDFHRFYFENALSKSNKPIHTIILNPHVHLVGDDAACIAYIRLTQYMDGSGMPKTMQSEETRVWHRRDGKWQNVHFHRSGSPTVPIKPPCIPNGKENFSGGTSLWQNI
Experimental: as §1

DAPK2(h) = target: T8, DAPK2(h) (Homo sapiens, UniProt Q9UIK4)
T8 construct: purchased Eurofins Cerep SA (KinaseProfiler)
Experimental: as §1

EGFR(h) = target: T9, EGFR(h) (Homo sapiens, UniProt P00533)
T9 construct: purchased Eurofins Cerep SA (KinaseProfiler)
Experimental: as §1

EphA1(h) = target: T10, EphA1(h) (Homo sapiens, UniProt P21709)
T10 construct: purchased Eurofins Cerep SA (KinaseProfiler)
Experimental: as §1

EphB1(h) = target: T11, EphB1(h) (Homo sapiens, UniProt P54762)
T11 construct: purchased Eurofins Cerep SA (KinaseProfiler)
Experimental: as §1

EphB4(h) = target: T12, EphB4(h) (Homo sapiens, UniProt P54760)
T12 construct: purchased Eurofins Cerep SA (KinaseProfiler)
T12 sequence (P54760 16-987): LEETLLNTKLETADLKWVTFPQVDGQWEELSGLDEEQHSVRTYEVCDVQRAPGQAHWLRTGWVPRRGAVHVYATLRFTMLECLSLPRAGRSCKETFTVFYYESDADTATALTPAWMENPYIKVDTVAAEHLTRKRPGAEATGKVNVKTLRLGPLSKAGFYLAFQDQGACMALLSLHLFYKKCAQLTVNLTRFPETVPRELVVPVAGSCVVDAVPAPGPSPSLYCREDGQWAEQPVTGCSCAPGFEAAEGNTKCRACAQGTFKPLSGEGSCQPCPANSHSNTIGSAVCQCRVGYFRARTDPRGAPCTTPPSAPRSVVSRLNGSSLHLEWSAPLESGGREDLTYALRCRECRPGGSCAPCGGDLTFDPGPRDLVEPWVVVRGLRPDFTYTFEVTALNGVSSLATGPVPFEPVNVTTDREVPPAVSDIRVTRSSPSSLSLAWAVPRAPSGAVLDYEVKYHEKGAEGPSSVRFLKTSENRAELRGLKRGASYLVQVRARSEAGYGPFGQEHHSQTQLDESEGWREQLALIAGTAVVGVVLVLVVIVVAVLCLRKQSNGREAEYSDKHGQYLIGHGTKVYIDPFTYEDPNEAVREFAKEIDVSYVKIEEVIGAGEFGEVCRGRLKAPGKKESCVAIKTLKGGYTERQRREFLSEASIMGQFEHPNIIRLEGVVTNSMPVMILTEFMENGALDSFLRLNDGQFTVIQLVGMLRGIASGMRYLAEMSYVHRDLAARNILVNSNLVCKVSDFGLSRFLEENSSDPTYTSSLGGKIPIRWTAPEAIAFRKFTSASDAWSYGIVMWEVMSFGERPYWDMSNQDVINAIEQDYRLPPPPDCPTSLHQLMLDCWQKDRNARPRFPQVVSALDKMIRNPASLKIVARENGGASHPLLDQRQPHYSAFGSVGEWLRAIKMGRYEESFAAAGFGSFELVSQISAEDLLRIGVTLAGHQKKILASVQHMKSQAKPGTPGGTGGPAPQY
Experimental: as §1

ErbB2(h) = target: T13, ErbB2(h) (Homo sapiens, UniProt P04626)
T13 construct: purchased Eurofins Cerep SA (KinaseProfiler)
Experimental: as §1

Fgr(h) = target: T14, Fgr(h) (Homo sapiens, UniProt P09769)
T14 construct: purchased Eurofins Cerep SA (KinaseProfiler)
Experimental: as §1

Flt1(h) = target: T15, Flt1(h) (Homo sapiens, UniProt P17948)
T15 construct: purchased Eurofins Cerep SA (KinaseProfiler)
Experimental: as §1

Haspin(h) = target: T16, Haspin(h) (Homo sapiens, UniProt Q8TF76)
T16 construct: purchased Eurofins Cerep SA (KinaseProfiler)
Experimental: as §1

Itk(h) = target: T17, Itk(h) (Homo sapiens, UniProt Q08881)
T17 construct: purchased Eurofins Cerep SA (KinaseProfiler)
Experimental: as §1

Lck(h) = target: T18, Lck(h) (Homo sapiens, UniProt P06239)
T18 construct: purchased Eurofins Cerep SA (KinaseProfiler)
Experimental: as §1

MST2(h) = target: T19, MST2(h) (Homo sapiens, UniProt Q13188)
T19 construct: purchased Eurofins Cerep SA (KinaseProfiler)
Experimental: as §1

Mnk2(h) = target: T20, Mnk2(h) (Homo sapiens, UniProt Q9HBH9)
T20 construct: purchased Eurofins Cerep SA (KinaseProfiler)
Experimental: as §1

MuSK(h) = target: T21, MuSK(h) (Homo sapiens, UniProt O15146)
T21 construct: purchased Eurofins Cerep SA (KinaseProfiler)
Experimental: as §1

NUAK2(h) = target: T22, NUAK2(h) (Homo sapiens, UniProt Q9H093)
T22 construct: purchased Eurofins Cerep SA (KinaseProfiler)
T22 sequence (Q9H093 whole entry): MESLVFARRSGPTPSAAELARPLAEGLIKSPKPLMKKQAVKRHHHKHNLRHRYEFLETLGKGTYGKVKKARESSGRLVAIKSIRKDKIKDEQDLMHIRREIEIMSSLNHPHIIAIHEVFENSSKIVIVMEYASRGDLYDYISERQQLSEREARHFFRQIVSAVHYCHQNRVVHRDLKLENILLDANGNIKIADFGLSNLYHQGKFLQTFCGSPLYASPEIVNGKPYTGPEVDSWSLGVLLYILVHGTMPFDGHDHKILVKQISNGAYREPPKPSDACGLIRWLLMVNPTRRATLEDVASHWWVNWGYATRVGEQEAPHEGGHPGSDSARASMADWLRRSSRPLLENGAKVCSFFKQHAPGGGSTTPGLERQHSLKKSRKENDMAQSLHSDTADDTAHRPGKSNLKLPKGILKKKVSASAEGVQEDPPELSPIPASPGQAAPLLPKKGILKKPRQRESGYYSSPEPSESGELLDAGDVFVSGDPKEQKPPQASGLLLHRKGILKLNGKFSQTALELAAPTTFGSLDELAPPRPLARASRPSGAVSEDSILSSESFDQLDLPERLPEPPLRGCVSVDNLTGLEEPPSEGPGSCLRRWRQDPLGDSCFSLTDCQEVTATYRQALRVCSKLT
Experimental: as §1

PDGFRα(h) = target: T23, PDGFRα(h) (Homo sapiens, UniProt P16234)
T23 construct: purchased Eurofins Cerep SA (KinaseProfiler)
Experimental: as §1

PDHK4(h) = target: T24, PDHK4(h) (Homo sapiens, UniProt Q16654)
T24 construct: purchased Eurofins Cerep SA (KinaseProfiler)
Experimental: as §1

PEK(h) = target: T25, PEK(h) (Homo sapiens, UniProt Q9NZJ5)
T25 construct: purchased Eurofins Cerep SA (KinaseProfiler)
Experimental: as §1

PhKγ1(h) = target: T26, PhKγ1(h) (Homo sapiens, UniProt Q16816)
T26 construct: purchased Eurofins Cerep SA (KinaseProfiler)
T26 sequence (Q16816 whole entry): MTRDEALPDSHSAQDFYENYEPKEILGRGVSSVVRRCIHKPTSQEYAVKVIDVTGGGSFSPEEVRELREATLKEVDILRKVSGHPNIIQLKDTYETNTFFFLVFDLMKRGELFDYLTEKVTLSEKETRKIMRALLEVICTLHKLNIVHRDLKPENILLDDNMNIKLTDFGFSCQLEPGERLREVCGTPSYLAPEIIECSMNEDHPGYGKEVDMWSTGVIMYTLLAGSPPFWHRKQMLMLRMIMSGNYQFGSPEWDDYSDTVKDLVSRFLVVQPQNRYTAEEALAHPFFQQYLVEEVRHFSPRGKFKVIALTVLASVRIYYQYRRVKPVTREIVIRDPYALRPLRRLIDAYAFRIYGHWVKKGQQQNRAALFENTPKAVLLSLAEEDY
Experimental: as §1

Pim-3(h) = target: T27, Pim-3(h) (Homo sapiens, UniProt Q86V86)
T27 construct: purchased Eurofins Cerep SA (KinaseProfiler)
Experimental: as §1

Ros(h) = target: T28, Ros(h) (Homo sapiens, UniProt P08922)
T28 construct: purchased Eurofins Cerep SA (KinaseProfiler)
Experimental: as §1

SAPK4(h) = target: T29, SAPK4(h) (Homo sapiens, UniProt O15264)
T29 construct: purchased Eurofins Cerep SA (KinaseProfiler)
T29 sequence (O15264 whole entry): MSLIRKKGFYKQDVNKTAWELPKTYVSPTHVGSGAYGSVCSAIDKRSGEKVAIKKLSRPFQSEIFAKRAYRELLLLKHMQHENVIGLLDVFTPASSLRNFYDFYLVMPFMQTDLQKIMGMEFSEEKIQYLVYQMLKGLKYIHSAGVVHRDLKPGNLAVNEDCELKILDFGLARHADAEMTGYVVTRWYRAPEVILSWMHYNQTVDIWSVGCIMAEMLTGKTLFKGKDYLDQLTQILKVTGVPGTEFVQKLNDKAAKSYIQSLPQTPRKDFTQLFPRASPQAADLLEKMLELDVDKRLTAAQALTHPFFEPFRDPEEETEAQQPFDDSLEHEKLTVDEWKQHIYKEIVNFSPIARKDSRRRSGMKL
Experimental: as §1

SBK1(h) = target: T30, SBK1(h) (Homo sapiens, UniProt Q52WX2)
T30 construct: purchased Eurofins Cerep SA (KinaseProfiler)
Experimental: as §1

SGK(h) = target: T31, SGK(h) (Homo sapiens, UniProt O00141)
T31 construct: purchased Eurofins Cerep SA (KinaseProfiler)
T31 sequence (O00141 whole entry): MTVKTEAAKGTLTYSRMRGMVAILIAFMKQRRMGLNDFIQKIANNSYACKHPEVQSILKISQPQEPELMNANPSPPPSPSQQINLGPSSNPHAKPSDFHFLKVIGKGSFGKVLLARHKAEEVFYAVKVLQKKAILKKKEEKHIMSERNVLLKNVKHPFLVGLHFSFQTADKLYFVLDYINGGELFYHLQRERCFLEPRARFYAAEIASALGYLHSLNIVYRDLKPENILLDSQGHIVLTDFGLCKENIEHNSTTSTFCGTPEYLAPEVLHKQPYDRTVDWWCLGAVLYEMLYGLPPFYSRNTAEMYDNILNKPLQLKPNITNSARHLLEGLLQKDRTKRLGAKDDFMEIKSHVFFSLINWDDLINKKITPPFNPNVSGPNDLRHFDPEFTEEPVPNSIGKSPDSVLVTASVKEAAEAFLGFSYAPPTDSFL
Experimental: as §1

SGK2(h) = target: T32, SGK2(h) (Homo sapiens, UniProt Q9HBY8)
T32 construct: purchased Eurofins Cerep SA (KinaseProfiler)
T32 sequence (Q9HBY8 whole entry): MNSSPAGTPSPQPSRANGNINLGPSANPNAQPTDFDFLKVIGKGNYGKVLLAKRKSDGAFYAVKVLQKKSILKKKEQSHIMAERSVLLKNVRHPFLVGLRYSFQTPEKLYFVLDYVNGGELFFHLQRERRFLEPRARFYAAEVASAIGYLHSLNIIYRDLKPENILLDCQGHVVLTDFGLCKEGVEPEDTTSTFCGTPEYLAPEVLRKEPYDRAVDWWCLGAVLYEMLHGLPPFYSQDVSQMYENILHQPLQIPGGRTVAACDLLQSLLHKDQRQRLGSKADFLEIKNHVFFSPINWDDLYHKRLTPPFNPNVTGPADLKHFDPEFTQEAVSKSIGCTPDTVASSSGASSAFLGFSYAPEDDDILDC
Experimental: as §1

STK32A(h) = target: T33, STK32A(h) (Homo sapiens, UniProt Q8WU08)
T33 construct: purchased Eurofins Cerep SA (KinaseProfiler)
Experimental: as §1

Syk(h) = target: T34, Syk(h) (Homo sapiens, UniProt P43405)
T34 construct: purchased Eurofins Cerep SA (KinaseProfiler)
Experimental: as §1

TGFBR2(h) = target: T35, TGFBR2(h) (Homo sapiens, UniProt P37173)
T35 construct: purchased Eurofins Cerep SA (KinaseProfiler)
Experimental: as §1

TLK1(h) = target: T36, TLK1(h) (Homo sapiens, UniProt Q9UKI8)
T36 construct: purchased Eurofins Cerep SA (KinaseProfiler)
Experimental: as §1

TSSK4(h) = target: T37, TSSK4(h) (Homo sapiens, UniProt Q6SA08)
T37 construct: purchased Eurofins Cerep SA (KinaseProfiler)
T37 sequence (Q6SA08 whole entry): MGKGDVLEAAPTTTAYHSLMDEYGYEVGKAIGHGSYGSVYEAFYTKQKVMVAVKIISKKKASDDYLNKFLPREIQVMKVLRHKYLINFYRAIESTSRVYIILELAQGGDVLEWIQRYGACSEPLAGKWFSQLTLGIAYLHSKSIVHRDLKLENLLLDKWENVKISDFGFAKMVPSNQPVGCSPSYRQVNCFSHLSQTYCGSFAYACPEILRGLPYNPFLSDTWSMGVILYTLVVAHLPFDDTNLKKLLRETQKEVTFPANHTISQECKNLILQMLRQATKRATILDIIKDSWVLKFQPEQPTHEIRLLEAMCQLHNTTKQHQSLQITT
Experimental: as §1

TTBK1(h) = target: T38, TTBK1(h) (Homo sapiens, UniProt Q5TCY1)
T38 construct: purchased Eurofins Cerep SA (KinaseProfiler)
Experimental: as §1

ULK3(h) = target: T39, ULK3(h) (Homo sapiens, UniProt Q6PHR2)
T39 construct: purchased Eurofins Cerep SA (KinaseProfiler)
Experimental: as §1

Yes(h) = target: T40, Yes(h) (Homo sapiens, UniProt P07947)
T40 construct: purchased Eurofins Cerep SA (KinaseProfiler)
T40 sequence (P07947 whole entry): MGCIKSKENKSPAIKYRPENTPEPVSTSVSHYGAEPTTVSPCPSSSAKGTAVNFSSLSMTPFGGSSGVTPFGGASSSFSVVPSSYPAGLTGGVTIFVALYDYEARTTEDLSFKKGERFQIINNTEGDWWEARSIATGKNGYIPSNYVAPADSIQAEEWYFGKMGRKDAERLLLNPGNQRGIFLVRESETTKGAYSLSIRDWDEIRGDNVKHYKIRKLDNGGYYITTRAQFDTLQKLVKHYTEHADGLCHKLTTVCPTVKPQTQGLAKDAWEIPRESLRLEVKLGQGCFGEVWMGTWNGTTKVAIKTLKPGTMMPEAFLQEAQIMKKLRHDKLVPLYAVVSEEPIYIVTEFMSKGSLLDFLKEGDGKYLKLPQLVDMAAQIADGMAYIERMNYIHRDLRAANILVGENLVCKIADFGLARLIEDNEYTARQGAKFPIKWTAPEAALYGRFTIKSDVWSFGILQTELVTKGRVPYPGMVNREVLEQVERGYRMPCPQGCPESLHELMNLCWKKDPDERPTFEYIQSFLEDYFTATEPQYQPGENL
Experimental: as §1

mTOR/FKBP12(h) = target: T41, mTOR/FKBP12(h) (Homo sapiens, UniProt P42345)
T41 construct: purchased Eurofins Cerep SA (KinaseProfiler)
Experimental: as §1

## CN(C)Cc1cccc(Nc2ncc(Cl)c(-c3csc(C(=O)NN4CCOCC4)c3)n2)c1 [SKLB-D18, 4-(5-chloro-2-((3-((dimethylamino)methyl)phenyl)amino)pyrimidin-4-yl)-N-morpholinothiophene-2-carboxamide]
Aurora-C(h)
  inhibition at 1 µM: 66%
CDK2/cyclinA(h)
  inhibition at 1 µM: 58%
CDK6/cyclinD3(h)
  inhibition at 1 µM: 47%
CDKL1(h)
  inhibition at 1 µM: 48%
CK1γ2(h)
  inhibition at 1 µM: 18%
CK2α2(h)
  inhibition at 1 µM: 65%
CaMKIIδ(h)
  inhibition at 1 µM: 47%
DAPK2(h)
  inhibition at 1 µM: 53%
EGFR(h)
  inhibition at 1 µM: -10%
EphA1(h)
  inhibition at 1 µM: 10%
EphB1(h)
  inhibition at 1 µM: 23%
EphB4(h)
  inhibition at 1 µM: 9%
ErbB2(h)
  inhibition at 1 µM: -3%
Fgr(h)
  inhibition at 1 µM: 42%
Flt1(h)
  inhibition at 1 µM: 39%
Haspin(h)
  inhibition at 1 µM: 12%
Itk(h)
  inhibition at 1 µM: 23%
Lck(h)
  inhibition at 1 µM: 63%
MST2(h)
  inhibition at 1 µM: 40%
Mnk2(h)
  inhibition at 1 µM: 59%
MuSK(h)
  inhibition at 1 µM: 20%
NUAK2(h)
  inhibition at 1 µM: 67%
PDGFRα(h)
  inhibition at 1 µM: 37%
PDHK4(h)
  inhibition at 1 µM: 5%
PEK(h)
  inhibition at 1 µM: 3%
PhKγ1(h)
  inhibition at 1 µM: 63%
Pim-3(h)
  inhibition at 1 µM: 33%
Ros(h)
  inhibition at 1 µM: -4%
SAPK4(h)
  inhibition at 1 µM: 53%
SBK1(h)
  inhibition at 1 µM: 55%
SGK(h)
  inhibition at 1 µM: 11%
SGK2(h)
  inhibition at 1 µM: 11%
STK32A(h)
  inhibition at 1 µM: -3%
Syk(h)
  inhibition at 1 µM: 38%
TGFBR2(h)
  inhibition at 1 µM: 30%
TLK1(h)
  inhibition at 1 µM: 24%
TSSK4(h)
  inhibition at 1 µM: 36%
TTBK1(h)
  inhibition at 1 µM: -5%
ULK3(h)
  inhibition at 1 µM: 45%
Yes(h)
  inhibition at 1 µM: 65%
mTOR/FKBP12(h)
  inhibition at 1 µM: 8%
